Measurements from patent US20060252107A1, “Compositions and methods for diagnosing and treating retinal diseases” (Acucela, Inc., priority 2005, published 2006).

Columns and labels:
ganglion cells = assay: mature retinal cell culture system with A2E as cell stressor, ganglion cell survival; type: cell-based, Porcine; details: 20 μM A2E for 48 hours
Experimental: (§1) The retinal cell culture system may be exposed to A2E at any concentration between 1 pM and 200 μM (e.g., 1 pM, 10 pM, 100 pM, 250 pM, 500 pM, 750 pM, 1 nM, 10 nM, 50 nM, 100 nM, 250 nM, 500 nM, 750 nM, 1 μM, 2 μM, 5 μM, 7.5 μM, 10 μM, 15 μM, 20 μM, 25 μM, 40 μM, 50 μM, 75 μM, 100 μM, 120 μM, 200 μM); or 250 μM, 500 μM, or 750 μM), between 1 μM and 40 μM, or between 10 μM and 20 μM, for a period of time, for example, between 2 and 48 hours or between 12 and 36 hours. In another embodiment, the cell culture may be exposed to lower concentrations of A2E (for example, between 1 pM and 10 μM or between 1 nM and 1 μM) for longer times (such as about one week, about two weeks, or about one month (4 weeks)).
(§2) Porcine eyes are obtained from Kapowsin Meats, Inc. (Graham, Wash.). Eyes are enucleated, and muscle and tissue are cleaned away from the orbit. Eyes are cut in half along their equator and the neural retina is dissected from the […] part of the eye in buffered saline solution, according to standard methods known in the art. […]
(§3) The retinal neuronal cells are cultured for 1, 3, 6, and 8 weeks, and the cells are analyzed by immunohistochemistry at each time point. […]
(§4) Cultures are analyzed by counting rhodopsin-labeled photoreceptors and NFM-labeled ganglion cells using an Olympus 1X81 or CZX41 microscope (Olympus, Tokyo, Japan). […]

photoreceptor cells = assay: mature retinal cell culture system with A2E as cell stressor, photoreceptor survival; type: cell-based, Porcine
Experimental: as §1, §2, §3, §4

CC(C=CC1=C(C)CCCC1(C)C)=CC=CC(C)=Cc1cc(C=CC=C(C)C=CC2=C(C)CCCC2(C)C)cc[n+]1CCO [A2E, N-retinylidene-N-retinyl-ethanolamine]
survival of ganglion cells (ganglion cells): not adversely affected
death of photoreceptor cells (photoreceptor cells; 20 μM A2E for 48 hours, compared to photoreceptor cells not exposed to A2E): more than 90%
effect of exposure of the retinal neuronal cell culture system to A2E (photoreceptor cells; concentration and time not stated): selective killing of certain cells, particularly photoreceptor cells
